Data set [1] has as its system Human pancreatic cancer cells (MIA Paca-2). The experiment in a line: In vivo study 1: MIA Paca-2 implant, gemcitabine or its HAP 120 mg/kg with radiotherapy. Details: species or system Balb/c nude mice. To be noted: i.p. 120 mg/kg twice/week plus 2 Gy; for tumor growth inhibitory effect: vs radiation monotherapy, FIG. 12. As to the method:
Human pancreatic cancer cells (MIA Paca-2) were subcutaneously implanted into Balb/c nude mice (6 or 7 mice per group), respectively, and gemcitabine or gemcitabine HAP (prepared according to the method described in Examples of JP 5676020 B2) was intraperitoneally administered (120 mg/kg, twice/week) to examine the synergistic effect of the combination therapy with radiotherapy (2 Gy, on the day after drug administration, twice/week).

Data set [2] shares this test system. Put plainly: In vivo study 2: MIA Paca-2 implant, gemcitabine or its HAP 10 mg/kg with radiotherapy. Details: species or system Balb/c nude mice. To be noted: i.p. 10 mg/kg twice/week plus 1 Gy, vs radiation monotherapy and gemcitabine plus radiation. As for the experimental part:
Human pancreatic cancer cells (MIA Paca-2) were subcutaneously implanted to Balb/c nude mice (6 mice per group), and gemcitabine or gemcitabine HAP was intraperitoneally administered (10 mg/kg, twice/week) to examine the synergistic effect of the combination therapy with radiotherapy (1 Gy, on the day after drug administration, twice/week).

In data set [3] the test system is Human cancer cells (MIA Paca-2). Put plainly: In vivo study 2 (part 2): MIA Paca-2 implant, comparison with 2-nitroimidazole, with irradiation. Details: species or system Balb/c nude mice. To be noted: i.p. 10 mg/kg twice/week plus 1 Gy; vs radiation alone, 2-nitroimidazole, and gemcitabine plus 2-nitroimidazole, FIG. 14. As to the method: Human cancer cells (MIA Paca-2) were subcutaneously implanted into Balb/c nude mice (7 mice per group), respectively, and 2-nitroimidazole (10 mg/kg, twice/week), 2-nitroimidazole and gemcitabine (10 mg/kg respectively, twice/week), and gemcitabine HAP (10 mg/kg, twice/week) were intraperitoneally administered to examine the synergistic effect of the combination therapy with irradiation (1 Gy, on the day after drug administration, twice/week).

The subject of data set [4] is Human cholangiocarcinoma cells (HuCCT1). Put plainly: In vivo study 3: HuCCT1 implant, gemcitabine or its HAP 30 mg/kg with radiotherapy. Details: species or system Balb/c nude mice. The note with it: i.p. 30 mg/kg twice/week plus 2 Gy; for tumor growth inhibitory effect: vs radiation monotherapy, FIG. 15. As for the experimental part:
Human cholangiocarcinoma cells (HuCCT1) were subcutaneously implanted into Balb/c nude mice (5 mice per group), respectively, and gemcitabine or gemcitabine HAP was intraperitoneally administered (30 mg/kg, twice/week), respectively to examine the synergistic effect of the combination therapy with radiotherapy (2 Gy, on the day after drug administration, twice/week).

The next data set concerns malignant tumor. Put plainly: therapy combined with radiotherapy (in vivo), summary in the disclosure. Details: species or system experimental animals. The text has this:
Nevertheless, we investigated if there exists benefit or not in the therapy combined with radiotherapy using the PropHAP of gemcitabine. […] Even if the dose of the drug was increased, the effect stayed the same. […] Each PropHAP differs from gemcitabine in its chemical structure of the anticancer drug and the mechanism of action on tumors.

For data set [5], the system named is Human breast cancer cells (MDA-MB-231). The experiment in a line: cell viability of MDA-MB-231 at normal and low oxygen concentration, 2 days. The format is cell-based. To be noted: MDA-MB-231, normal vs low oxygen concentration (0.2%), FIG. 1.
In another data set the test system is PARP. The experiment in a line: detection of poly ADP ribosylated (PARylated) proteins by Western blotting. The format is cell-based, Human. The note with it: hypoxic environment, FIG. 2. The source says:
To determine whether the targeted PARP activity was inhibited under a hypoxic environment, proteins were recovered from the cells and poly ADP ribosylated (PARylated) proteins were detected by Western blotting.
(In general: In western blotting, separated proteins are transferred to a membrane and probed.)

In a further data set the test system is MDA-MB-231 cells. Put plainly: MDA-MB-231 subcutaneous implant in mice, drug combined with radiotherapy. The note with it: oral 50/100 mg/kg plus 0.5 Gy; for tumor growth inhibitory effect: compared with radiation monotherapy, FIG. 3. Type of data set: in vivo, Balb/c nude mice. As to the method: Balb/c nude mice (6 or 7 mice per group) were each subcutaneously implanted with MDA-MB-231 cells, and administered with niraparib or niraparib HAP to analyze the synergistic effect with radiotherapy.
Irradiation: 1 hour of drug administration followed by irradiation at 0.5 Gy

The subject of data set [6] is Human malignant melanoma (A375) cells. The experiment in a line: cell viability of A375 at normal and low oxygen concentration, 2 days. The note with it: A375, normal vs lower (0.2%) oxygen, FIG. 5, 6, 8. The format is cell-based.
Data set [7] deals with Human breast cancer cells (MDA-MB-231). The experiment in a line: cell viability of MDA-MB-231 at normal and low oxygen concentration, 4 days. Type of data set: cell-based. To be noted: MDA-MB-231, normal vs lower (0.2%) oxygen, FIG. 7.
Data set [8] has as its system Human breast cancer cells (MCF-7). Put plainly: cell viability of MCF-7 at normal and low oxygen concentration, 2 days. Type of data set: cell-based. To be noted: MCF-7, normal vs lower (0.2%) oxygen, FIG. 9, 11. The text has this:
The results are illustrated in FIG. 11.

The test system of data set [9] is Human pancreatic cancer cells (MIA Paca-2). Put plainly: MIA Paca-2 subcutaneous implant in mice, palbociclib or its HAP with radiotherapy. The format is in vivo, Balb/c nude mice. To be noted: oral 100 mg/kg twice/week plus 2 Gy; vs radiation alone and vs palbociclib plus radiation, FIG. 10. As to the method: Human pancreatic cancer cells (MIA Paca-2) were subcutaneously implanted into Balb/c nude mice (6 mice per group), and palbociclib or palbociclib HAP was orally administered (100 mg/kg, twice/week) to examine the synergistic effect with radiotherapy (2 Gy on the day after drug administration, twice/week).

In data set [10] the test system is human breast cancer cells (MCF7). The experiment in a line: MCF7 subcutaneous implant in mice, ribociclib or its HAP with radiotherapy. Type of data set: in vivo, Balb/c nude mice. The note with it: oral 75 mg/kg twice/week plus 1 Gy; vs radiation alone or ribociclib plus radiation, FIG. 11. As to the method:
A 17β-estradiol sustained-release pellet (manufactured by Innovative Research of America) and human breast cancer cells (MCF7) were subcutaneously implanted to Balb/c nude mice (6 mice per group), and ribociclib or ribociclib HAP was orally administered (75 mg/kg, twice/week) to examine the synergistic effect with radiotherapy (1 Gy, on the day after drug administration, twice/week). The results are illustrated in a lower panel of FIG. 11.

For data set [11] the test system is unchanged. The experiment in a line: MCF7 subcutaneous implant in mice, doxorubicin or its HAP with radiotherapy. The note with it: i.p. 4 or 16 mg/kg plus 0.5 Gy. Type of data set: in vivo, Balb/c nude mice. As to the method:
Balb/c nude mice (6 mice or more per group) were subcutaneously implanted with […] sustained-release pellets (produced by Innovative Research of America) and human breast cancer cells (MCF7), and intraperitoneally administered with doxorubicin (4 mg/kg. Day 0 and 2) or doxorubicin HAP 4 mg/kg, or 16 mg/kg, Day 0, 2, 7 and 9) to examine the synergistic effect with radiotherapy (0.5 Gy, Day 1, 3, 8 and 10). The results are shown in a lower panel of FIG. 16.

The test system of the next data set is hypoxic cells. To be noted: compared to typical radiotherapy alone; cited from earlier work.
The mark [12] stands for this setting: vs gemcitabine-administered group.
[13] abbreviates: with radiotherapy, radiation dose at which the parent compound causes side effects such as weight loss.
Setting [14] is: compared with niraparib-administered group.

Molecules are shown by their SMILES.

As to `O=C(CCn1ccnc1[N+](=O)[O-])Nc1ccn([C@@H]2O[C@H](CO)C(O)C2(F)F)c(=O)n1` (stereo in doubt) [gemcitabine HAP], the body weight entry in data set [1] (setting [12]) was “no decrease in body weight”; in [4] (setting [12]), “did not show a decrease in body weight”. The survival rate entry in [1] (setting [12]) is on record as “improved survival rate”. In addition, the “tumor growth inhibitory effect” value in data set [1] is “tumor growth inhibitory effect was enhanced”; in [2] (FIG. 13), “effect was higher than that of gemcitabine”; in data set [2] (FIG. 13, listed as gemcitabine-HAP) it was “tumor growth inhibitory effect was enhanced”; in data set [3], “tumor growth inhibitory effect was enhanced”; in data set [4] it was “tumor growth inhibitory effect was enhanced”. The anticancer effects result with malignant tumor (radiation and drug dose at which the parent shows no side effect, vs radiation alone, parent alone, parent plus radiotherapy) was “significantly superior anticancer effects”. For the same compound, the therapeutic effect result in the data set on malignant tumor (setting [13]) is reported as “almost equivalent to that of the parent compound”. Further, in the data set with malignant tumor (setting [13]), the weight loss result was “not resulting in a significant weight loss”.
On to `NC(=O)c1cccc2cn(-c3ccc(C4CCCN(C(=O)CCn5ccnc5[N+](=O)[O-])C4)cc3)nc12` (centres unmarked) [Compound 3], for which the “cytotoxicity (cell viability)” value in data set [5] is “cytotoxicity is recovered at the low oxygen concentration”. Further, the “PARP activity (PARylated proteins)” value in the data set with PARP was “PARP activity is specifically inhibited under the low oxygen environment”. Besides, in the data set with MDA-MB-231 cells (setting [14]), the body weight result is on record as “no decrease in body weight” and the survival rate result is recorded as “improved survival rate”. Further, the “tumor growth inhibitory effect” value in the data set on MDA-MB-231 cells was “tumor growth inhibitory effect is enhanced”.
As to `CC(C)(C)c1nc(-c2cccc(NS(=O)(=O)c3c(F)cccc3F)c2F)c(-c2ccnc(NC(=O)CCn3ccnc3[N+](=O)[O-])n2)s1` [Compound 9], in data set [6], the “cytotoxicity (cell viability)” value is “cytotoxicity is recovered at the low oxygen concentration”.
Same read-out and setting: for `CCCS(=O)(=O)Nc1ccc(F)c(C(=O)c2cn(C(=O)CCn3ccnc3[N+](=O)[O-])c3ncc(-c4ccc(Cl)cc4)cc23)c1F` [Compound 11] the value was “cytotoxicity is recovered at the low oxygen concentration”.
Consider `O=C(CCn1ccnc1[N+](=O)[O-])Nc1ccccc1NC(=O)c1ccc(CNC(=O)OCc2cccnc2)cc1` [Compound 13], for which, in data set [7], the “cytotoxicity (cell viability)” value is on record as “cytotoxicity is recovered at the low oxygen concentration”.
Turning to `O=C(c1ccc(F)c(F)c1Nc1ccc(I)cc1F)N1CC(O)([C@@H]2CCCCN2C(=O)CCn2ccnc2[N+](=O)[O-])C1` [Compound 15], the “cytotoxicity (cell viability)” value in data set [6] is listed as “cytotoxicity is recovered at the low oxygen concentration”.
For the compound `CC(=O)c1c(C)c2cnc(Nc3ccc(N4CCN(C(=O)CCn5ccnc5[N+](=O)[O-])CC4)cn3)nc2n(C2CCCC2)c1=O` [Compound 17], in data set [8], the “cytotoxicity (cell viability)” value is reported as “cytotoxicity is recovered at the low oxygen concentration”. The “tumor growth inhibitory effect” value in [9] is recorded as “tumor growth inhibitory effect was enhanced when radiation was used in combination”.
Turning to `CN(C)C(=O)c1cc2cnc(Nc3ccc(N4CCN(C(=O)CCn5ccnc5[N+](=O)[O-])CC4)cn3)nc2n1C1CCCC1` [Compound 19], the “cytotoxicity (cell viability)” value in data set [8] is “cytotoxicity is recovered at the low oxygen concentration”. Also, in data set [10], the “tumor growth inhibitory effect” value is listed as “tumor growth inhibitory effect was enhanced when radiation was used in combination”.
As to `COc1cccc2c1C(=O)c1c(O)c3c(c(O)c1C2=O)CC(O)(C(=O)CO)CC3OC1CC(NC(=O)CCn2ccnc2[N+](=O)[O-])C(O)C(C)O1` (centres unmarked) [doxorubicin HAP], in data set [11] (vs doxorubicin-administered group), the weight loss entry is “did not show the weight loss”. In data set [11] (vs radiotherapy alone and doxorubicin plus radiation, FIG. 16), the “tumor growth inhibitory effect” value was “tumor growth inhibitory effect was enhanced when radiation was used in combination”.
Take `O=C(Cn1ccnc1[N+](=O)[O-])NCCO` [etanidazole]: the survival rate entry in the data set on hypoxic cells is on record as “no significant improvement statistically in survival rate”.
Turning to `Nc1ccn([C@@H]2O[C@H](CO)[C@@H](O)C2(F)F)c(=O)n1` [gemcitabine, reference compound], the “tumor growth inhibitory effect” value in [1] and in data set [4] was “tumor growth inhibitory effect was enhanced” in each case.
Consider `O=[N+]([O-])c1cncn1CCN1CCOCC1` [nimorazole], for which the survival rate entry in the data set with hypoxic cells is “no significant improvement statistically in survival rate”.
For the compound `NC(=O)c1cccc2cn(-c3ccc([C@@H]4CCCNC4)cc3)nc12` [niraparib, reference compound], the “tumor growth inhibitory effect” value in the data set with MDA-MB-231 cells is reported as “tumor growth inhibitory effect is enhanced”.
For the compound `O=[N+]([O-])c1nccn1CC(O)CN1CCCCC1` (centres unmarked) [pimonidazole], in the data set with hypoxic cells, the survival rate result was “no significant improvement statistically in survival rate”.

Values taken from patent US20240424011A1, “COMBINATION THERAPY OF HYPOXIA-RESPONSIVE PRODRUG OF AN ANTICANCER DRUG AND RADIOTHERAPY, AND NOVEL HYPOXIA-RESPONSIVE PRODRUG” (UNIVERSITY OF TSUKUBA, priority 2021, published 2024).
